Laboratory results reported in patent US8628792B2, “Drug cores for sustained release of therapeutic agents” (Mati Therapeutics, Inc., priority 2007, dated 2014).
Several values for one entry are separate records, joined by “and”; a condition that tells them apart may be missing. Identical values can stand only once. One block for each molecule: values may come before it.

Experiments:
[1] = Bimatoprost bulk sample elution, normalized to ng per device per day; assay type: physicochemical; conditions: for zero order elution rate: about 90 days
Experimental: Bulk samples of 1% Bimatoprost having a known diameter of 0.076 cm (0.76 mm) were prepared. The height of each sample was determined from the weight and known diameter of the sample.
The calculated heights ranged from 0.33 cm to 0.42 cm. The exposed surface area on each end of each bulk sample was approximately 0.045 cm2, providing volumes of 0.019 cm3 and 0.015 cm3 for the 0.42 and 0.33 cm samples, respectively. The exposed an exposed surface area of samples calculated from the height and diameter without a drug sheath was approximately 0.1 cm2. Three formulations were evaluated: 1) silicone 4011, 1% Bimatoprost, 0% surfactant; 2) silicone 4011, 1% Bimatoprost, approximately 11% surfactant; and 3) silicone 4011, 1% Bimatoprost, approximately 33% surfactant. The elution data measured for the bulk samples with formulation 1, 2 and 3 were normalized to ng per device per day (ng/device/day) assuming a surface area of the bulk device is 0.1 cm2 and the surface area of the clinical device is 0.00078 cm2 (0.3 mm diameter). […] The normalized elution profile is about 10 ng per day. […] Similar formulations can be used with drug core sheaths and a shaped exposed surface of the core exposed to the tear to increase the exposed surface area as described above and deliver the drug in therapeutic amounts over an extended period.

[2] = In vitro elution study of drug cores (drug in silicone matrix in polyimide tube) in 7.4 pH buffer, HPLC; assay type: physicochemical; conditions: for Duration: calculated time when ~10% of drug remains
Description: Drug cores as described above have been fabricated with different cross sectional sizes of 0.006 inches, 0.012 inches, and 0.025 inches, and drug concentrations of 5%, 10% and 20% in a silicone matrix. Theses drug cores can be made with a Syringe Tube and Cartridge Assembly, Mixing Latanoprost with Silicone, and Injecting the mixture into a polyimide tube which is cut to desired lengths and sealed. The length of the drug cores were approximately 0.80 to 0.95 mm, which for a diameter of 0.012 inches (0.32 mm) corresponds to total Latanoprost content in the drug cores of approximately 3.5 μg, 7 μg and 14 μg for concentrations of 5%, 10% and 20%, respectively.
Mix Latanoprost with Silicone. Prepare Latanoprost. Latanoprost is provided as a 1% solution in methylacetate. Place the appropriate amount of solution into a dish and using a nitrogen stream, evaporate the solution until only the Latanoprost remains. Place the dish with the Latanoprost oil under vacuum for 30 minutes. Combine Latanoprost with silicone. Prepare three different concentrations of Latanoprost (5%, 10% and 20%) in silicone Nusil 6385 and inject it into tubing of different diameters (0.006 in, 0.012 in and 0.025 inches) to generate 3×3 matrixes. The percent of Latanoprost to silicone is determined by the total weight of the drug matrix. Calculation: Weight of Latanoprost/(weight of Latanoprost+weight of silicone)×100=percent drug.
Inject tube. 1. Insert Cartridge and Polyimide tubes assembly into 1 ml syringe. 2. Add one drop of catalyst, (MED-6385 Curing Agent) in the syringe. 3. Force excess catalyst out of the polyimide tube with clean air. 4. Fill syringe with silicone drug matrix. 5, Inject tube with drug matrix until the tube is filled or the syringe plunger becomes too difficult to push. 6. Close off the distal end of the polyimide tube and maintain pressure until the silicone begins to solidify. 7. Allow to cure at room temperature for 12 hours. 8. Place under vacuum for 30 minutes. 9. Place tube in right size trim fixture (prepared in house to hold different size tubing) and cut drug inserts to length (0.80-0.95 mm).
Testing. Elution study (in vitro). 1. Place 10 plugs of same size and same concentration per centrifuge tube and add 1.5 ml of 7.4 pH buffer solution to it. 2. Change the solvent with fresh 7.4 pH buffer after appropriate time. 3. Take HPLC of the elutant at 210 nm with PDA detector 2996 using Sunfire C18, 3 mm×10 mm column (Waters Corporation, Milford, Mass.). Acetonitrile and water mixture is used for gradient elution. Calibration was done in house before and after each analysis, using in-house standards with precisely weighed concentration of Latanoprost. 4. Calculate the amount of drug release per day per device for different size tubings having different concentrations of Latanoprost. 5. Plot elution rate vs area and concentration for day 1 and day 14.

[3] = cited from earlier work
[4] = Inclusion (droplet) diameter in silicone/latanoprost cores, scanning electron micrographs; assay type: physicochemical; conditions: for average inclusion diameter and standard deviation: latanoprost-silicone mixture, n=40 inclusion; for average diameter of latanoprost droplets: silicone matrix
Experimental: A two part silicone formulation (MED6385, Nusil Technologies) was used in the preparation of a composite resin containing latanoprost, which was used to fill a section of polyimide sheathing. The sheathing containing the polymerized silicone incorporates discrete latanoprost domains, existing in the form of droplets of less than about 25 μm maximum diameter, within the matrix. Several experiments were conducted.
Part A of the MED6385 silicone formulation was mixed with 0.43 μL of Part B, the tin catalyst, using syringes, to bring about partial coagulation of the polymer over 30 minutes. Then, 37 mg of that material was mixed with a premixed solution of 0.144 additional catalyst and 13 mg latanoprost, and that mixture could be further mixed by sonication with an ultrasonic probe. The resulting mixture was transferred to a syringe needle connected to a HP7x syringe adapter, which is connected to an EFD pump, which is in turn connected to a compressed air system and the delivery pressure set to 40 psi. The silicone-latanoprost mixture is then extruded down the length (10 cm) of polyimide tubing (IWG High Performance Conductors, Inc.). When the viscous mixture reached the bottom of polyimide tubing, clamps were applied at the bottom of the tubing and at the top connection with the syringe adapter, then pressure is released and the tubing section removed. The clamped section of tubing was placed in a humidity chamber (Thunder Scientific) for curing at 40° C. and 80% relative humidity (RH) for approximately 16-24 hrs.
Scanning electron micrographs of the sheath containing the cured matrix, i.e., the filled precursor sheath, are shown in FIG. 15A-D at the magnifications indicated. The inserts were sectioned cryogenically. FIGS. 15A and 15B, respectively, show the insert cores wherein the extrusion was carried at 40° C. (A) or 25° C. (B).
The temperature of the mixture, and of the associated apparatus involved in filling the polyimide sheath was held at various temperatures during the injection process. Among the temperatures used were a slightly elevated temperature (40° C.), approximate room temperature (25° C.), and subambient temperatures, such as 0° C., −5° C., and −25° C. The subambient injection procedures are provided in this Example.
Scanning electron micrographs of the sheath containing the cured matrix, i.e., the filled precursor sheath, are shown in FIG. 15A-D at the magnifications indicated. The inserts were sectioned cryogenically. FIGS. 15C and 15D show the results of extrusions carried out at 0° C. and −25° C. respectively. They can be compared with FIGS. 15A and 15B that were carried out at ambient temperature (25° C.) or above (40° C.).
Measurements of average inclusion diameters, and standard deviation thereof, are as shown: […]

IOP = conditions: cited from earlier work
[5] = Latanoprost content per 1 mm section divided from a filled precursor tube; assay type: physicochemical
Experimental: (squares) unexpectedly produced a more uniform distribution of therapeutic agent latanoprost in the silicone matrix, after curing, along the entire length of the 10 cm precursor sheath, which was subsequently divided into 1 mm sections, and the latanoprost content of each sections (drug insert) determined. Extrusions carried out at room temperature (circles) and at 40° C. […] The results are significant in terms of manufacturing medically useful devices, as it is desirable to maintain a uniform content of the therapeutic agent among a plurality of drug inserts manufactured by this method.
Measurements of average latanoprost content (μg) per 1 mm section (core) divided (razor blade) from a filled precursor tube are as shown: […]

[6] = topical drop to the eye; cited from earlier work
[7] = formulations A-D (silicone 4011 or 6385, 10-20% Latanoprost, 0-20% NaCl), non-sterile cores

zero order elution rate ([1]; scaled to 0.76 mm exposed diameter (0.0045 cm2)): about 60 ng per day
zero order elution rate ([1]; scaled to exposed surface area about 0.0078 cm2): about 100 ng per day
normalized elution profile ([1]; silicone 4011, 1% Bimatoprost, 0/11/33% surfactant bulk samples, normalized to 0.3 mm exposed surface diameter (0.00078 cm2)): about 10 ng per day
elution rate ([2]; 20% bimatoprost in NuSil 6385, 0% salt, 1 day): about 100 ng per day
relative elution rate ([2]; 20% bimatoprost in NuSil 6385, 0% salt, all time periods to two weeks): lowest elution rate
elution rate ([2]; 20% bimatoprost in NuSil 6385, 10% salt, 1 day): 400 ng per day
elution rate ([2]; 20% bimatoprost in NuSil 6385, 20% salt, 1 day): about 750 ng/day
relative elution rate ([2]; 20% bimatoprost in NuSil 6385, 20% salt, all time periods to two weeks): highest elution rate
SMILES: CCNC(=O)CCC/C=C\C[C@@H]1[C@@H](/C=C/[C@@H](O)CCc2ccccc2)[C@H](O)C[C@@H]1O [Bimatoprost]
release kinetics ([1]; from about ten days to about 90 days, each of the formulations 1-3): approximately zero order release kinetics

SMILES: O=C1OC2(c3ccc(O)cc3Oc3cc(O)ccc32)c2ccccc21 [Fluorescein]
solubility in water [3]: soluble in water

average inclusion diameter and standard deviation ([4]; Cold extrusion (−5° C.)): 0.006±0.002 mm
maximum diameter of latanoprost droplets ([4]; MED6385 matrix, high pressure filling): less than 25 μm
average inclusion diameter and standard deviation ([4]; Room temp (22° C.) extrusion): 0.019+0.019 mm and 0.019±0.019 mm
average diameter of latanoprost droplets ([4]; cold extrusion (−5° C.)): 6 μm
average diameter of latanoprost droplets ([4]; extrusion at room temperature): 19 μm
average latanoprost content per 1 mm section (Average±SD) ([5]; Cold extrusion (−5° C.)): 20.9 ± 0.5 µg
average latanoprost content per 1 mm section (Average±SD) ([5]; Room temperature (22° C.) extrusion): 20.2 ± 1.9 µg
elution rate ([2]; 7 μg core (10%, 0.32 mm diameter, 0.95 mm long), 10 to 20 days, compared with 14 μg core): comparable rates
elution rate ([2]; 14 μg core (20%, 0.32 mm diameter, 0.95 mm long), from about 10 to 40 days): approximately 100 ng per day
relative elution rate ([2]; 20% latanoprost in 6380 material with 2.5% crosslinker, 1, 4, 7 and 14 days, vs 6385 material): slightly lower elution rate
relative elution rate ([2]; 20% latanoprost in 6380 material with 5% crosslinker, all time points): lowest elution rate
relative elution rate ([2]; 20% latanoprost in 6385 material with 2.5% crosslinker, 1, 4, 7 and 14 days): highest elution rates
relative elution rate ([2]; 6385 material with 5% latanoprost, all time periods): lowest rate
elution rate ([2]; 6385 material with 5, 10, 20, 30 and 40% latanoprost, all samples, by 7 days): below 500 ng per day
elution rate, both ends open/2 compared with one end open ([2]; 6385 material with 20% latanoprost, all time points): very close to the one end open data
relative elution rate ([2]; 6385 material with 40% latanoprost, all time periods): highest rate
initial elution of Latanoprost from plug ([2]; buffered saline elution system, initial): approximately 500 ng per day
elution rate after dropping off ([2]; buffered saline elution system, within 7-14 days, depending on initial concentration): approximately 100 ng/day
Latanoprost released (elution rate) ([2]; day 1, 0.006 inch diameter core, exposed surface area approx 0.02 mm2): about 200 ng
Latanoprost released (elution rate) ([2]; day 1, 0.012 inch diameter core, exposed surface area approx 0.07 mm2): ~400 ng
Latanoprost released (elution rate) ([2]; day 1, 0.025 inch diameter core, exposed surface area approx 0.32 mm2): ~1200 ng
Latanoprost released (elution rate) ([2]; day 14, 0.006 inch diameter core, approx 0.02 mm2): about 25 ng
Latanoprost released (elution rate) ([2]; day 14, 0.012 inch (0.32 mm) diameter core, approx 0.07 mm2): ~100 ng
Latanoprost released (elution rate) ([2]; day 14, 0.025 inch diameter core, approx 0.32 mm2): ~300 ng
elution rate ([2]; e-beam sterile core, 20% latanoprost in 6385, first day): about 450 ng/day
elution rate by 3 weeks (21 days) [2, 7]: about 100 ng per device per day
initial elution rate [2, 7]: approximately 300 ng per device per day
elution rate ([2]; non-sterile core, 20% latanoprost in 6385, 14 day): about 150 ng/day
elution rate ([2]; non-sterile core, 20% latanoprost in 6385, days 4 and 7): about 400 ng/day
elution rate ([2]; non-sterile core, 20% latanoprost in 6385, first day): ~1400 ng/day
elution rate ([2]; sterile core, 20% latanoprost in 6385, 14 day): 200 ng/day
elution rate ([2]; sterile core, 20% latanoprost in 6385, days 4 and 7): about 400 ng/day
Duration ([2]; total Latanoprost content 3.5 μg): ~25 days
Duration ([2]; total Latanoprost content 7 μg): ~45 days
Duration ([2]; total Latanoprost content 14 μg): ~100 days
SMILES: CC(C)OC(=O)CCC/C=C\C[C@@H]1[C@@H](CC[C@@H](O)CCc2ccccc2)[C@H](O)C[C@@H]1O [Latanoprost]
duration of IOP lowering (IOP; about 200 ng of drug remaining on the eye after a drop of Xalatan): at least 24 hours
IOP reduction relative to that of the 50 μg/mL QD dose (IOP; lowest doses of 12.5 μg/mL QD or 15 μg/mL BID): 60-75%

SMILES: CC(C)(C)NC[C@H](O)COc1nsnc1N1CCOCC1 [Timolol]
bioavailability [6]: 30-50%
